One series has as its system zebrafish embryos. Put plainly: Zebrafish embryo phenotype after incubation with compound. The class given is in vivo. The following applies: zebrafish embryos treated at concentrations of 10 and 20 μM; micrographic images (FIG. 14 A, B). The procedure: FIG. 14 provides micrographic images of zebrafish embryos: (A) and (B) Phenotypes generated by incubating zebrafish embryos with Compound 2-23 at various concentration; (C) Lysates from Compound 2-23 treated or untreated embryos at 24 hpf were reacted with biotin-azide, pull-down with streptavidin beads and analyzed using SDS-PAGE.
FIG. 14 provides micrographic images of zebrafish embryos. Panels (A) and (B) illustrate phenotypes generated by incubating zebrafish embryos with Compound 2-23 at various concentrations. […] Panel (C) provides SDS-PAGE images of lysates from Compound 2-23 treated or untreated embryos at 24 hours post fertilization (hpf). The lysates were treated with biotin-azide and a copper(I) catalyst to react with the terminal alkyne via a copper-catalyzed azide-alkyne Click reaction and thereby attach biotin to any Compound 2-23 that may have been bound to a protein in the lysate. The biotinated lysate was then pulled-down with streptavidin beads and analyzed using SDS-PAGE.
As for `C#CCOC[C@H]1O[C@@H](n2cc(C)c(=O)[nH]c2=O)C[C@H]1N=S(=O)(F)F` [Compound 2-23, ((2S,3S,5R)-5-(5-Methyl-2,4-dioxo-3,4-dihydropyrimidin-1(2H)-yl)-2-((prop-2-yn-1-yloxy)methyl)tetrahydrofuran-3-yl)sulfurimidoyl Difluoride], the “phenotypical changes in the embryos” value is reported as “significant phenotypical changes”.

Tested on in another series: not given
Assay: not given
Details: not given
Molecule `C#Cc1ccc(N=S2(=O)Oc3ccccc3-c3ccccc3O2)cc1` [Compound 9-4, 6-((4-Ethynylphenyl)imino)-6λ^4-dibenzo[d,f][1,3,2]dioxathiepine 6-oxide] returned a melting point of 138 to 139 °C.
Same read-out and setting: for `C#Cc1ccc(NS(=O)(=O)N[C@@H](C)C(=O)O)cc1` [Compound 4-2, (N-(4-Ethynylphenyl)sulfamoyl)-L-alanine] the value was 163 to 165 °C; for `C#Cc1ccc(N=S(=O)(Oc2ccccc2O)N2CCN(C(=O)OC(C)(C)C)CC2)cc1` (stereo not drawn) [Compound 10-2, tert-Butyl 4-(N-(4-ethynylphenyl)-S-(2-hydroxyphenoxy)sulfonimidoyl)piperazine-1-carboxylate], 139 to 141 °C; for `C#Cc1ccc(NS(=O)(=O)NCC(=O)O)cc1` [Compound 4-1, (N-(4-ethynylphenyl)sulfamoyl)glycine], 113 to 115 °C.
Still for that read-out and setting: as for `O=C1[C@@H]([C@H](c2ccccc2)N2CCN(c3ccc(F)cc3)CC2)N=S(=O)(F)N1C1CCCCC1` (stereo partly drawn) [Compound 2-25, (4R)-2-Cyclohexyl-1-fluoro-4-((S)-(4-(4-fluorophenyl)piperazin-1-yl)(phenyl)methyl)-2,4-dihydro-3H-1λ^6,2,5-thiadiazol-3-one 1-oxide], the figure is 139 to 140 °C; as for `C#Cc1ccc(N=S(=O)(Oc2ccccc2O)N2CCCCC2)cc1` (centres unmarked) [Compound 10-1, 2-Hydroxyphenyl N-(4-ethynylphenyl)piperidine-1-sulfonimidate], 93 °C; as for `C#Cc1ccc(N=S2(=O)Oc3c(C)ccc(C)c3O2)cc1` [Compound 9-2, 2-((4-Ethynylphenyl)imino)-4,7-dimethyl-2λ^4-benzo[d][1,3,2]dioxathiole 2-oxide], 101 °C.
The same measure, in the same setting: for `C#CCOC[C@H]1O[C@@H](n2cc(C)c(=O)[nH]c2=O)C[C@@H]1N=S(=O)(F)N1CCC1` (some centres unmarked) the value was 105 to 106 °C; for `C#Cc1ccc(N=S(=O)(Oc2ccc(-c3ccccc3)cc2)Oc2ccc(-c3ccccc3)cc2)cc1` [Compound 7-2, Di([1,1′-biphenyl]-4-yl) (4-ethynylphenyl)sulfurimidate], 129 °C.
As to `C#Cc1ccc(N=S(=O)(F)Oc2ccc(-c3ccccc3)cc2)cc1` (centres unmarked) [Compound 6-1, [1,1′-biphenyl]-4-yl (4-ethynylphenyl)sulfurofluoridoimidate], the melting point fell in the range of 94 to 95 °C.
The same measure, in the same setting: for `C#Cc1ccc(N=S(=O)(F)N2CCC(=O)CC2)cc1` (centres unmarked) the value was 70 °C; for `C#Cc1ccc(N=S2(=O)Oc3ccccc3O2)cc1` [Compound 9-1, 2-((4-Ethynylphenyl)imino)-2λ^4-benzo[d][1,3,2]dioxathiole 2-oxide], 97 to 98 °C.
On the same count and under the same terms, as for `C#CCOC[C@H]1O[C@@H](n2cc(C)c(=O)[nH]c2=O)C[C@@H]1N=S(=O)(F)Oc1ccc2c(c1)CC[C@H]1C3CCC(=O)[C@@]3(C)CC[C@H]21` (some centres unmarked), the figure is 94 to 95 °C.

Values taken from US11254702B2, “Thionyl tetrafluoride modified compounds and uses” (The Scripps Research Institute, priority 2016, dated 2022).
